The text below walks through data of ChEMBL document CHEMBL5537121, “Synthesis and biological evaluation of structurally diverse 6-aryl-3-aroyl-indole analogues as inhibitors of tubulin polymerization” (Eur J Med Chem, 2024).

The source made the active and inactive calls. No cut-off for these calls is given here.

Data set [1] in a line: Inhibition of bovine brain tubulin polymerization preincubated for 15 mins followed by GTP addition and measured after 20 mins by spectrophotometric analysis. More on the design: species or system Bos taurus.
In data set [2] the test system is MCF7. The experiment in a line: Cytotoxicity against human MCF7 cells assessed as cell growth inhibition incubated for 96 hrs by SRB assay. It counts as functional. On the technique in general: Sulforhodamine B stains cellular protein and so reports cell mass.
In data set [3] the test system is MDA-MB-231. Nature of the data set: Cytotoxicity against human MDA-MB-231 cells assessed as cell growth inhibition incubated for 96 hrs by SRB assay. In kind it is functional.
For data set [4], the target named is T1, Tubulin (Homo sapiens) (UniProt P68371+Q9H4B7+P0DPH7+P68366+Q13509+Q71U36+P04350+Q3ZCM7+P07437+P68363+Q9BQE3+Q6PEY2+Q13885+Q9BVA1+Q9BUF5). Nature of the data set: Inhibition of [3H]Colchicine binding to tubulin (unknown origin) at 5 uM incubated for 10 mins by scintillation counter relative to control. In kind it is protein-complex assay.
The target of data set [5] is T1, Tubulin (Homo sapiens). The experiment in a line: Induction of microtubule disruption in human MDA-MB-231 cells assessed as reduction in fluorescence at 100 nM measured at <1.5 mins by ViaFluor 488 live cell microtubule and Hoechst 33342 staining based fluorescence microscopic analysis.
The target of data set [6] is T1, Tubulin (Homo sapiens). The experiment in a line: Induction of microtubule disruption in human MDA-MB-231 cells at 100 nM measured at 30 mins by ViaFluor 488 live cell microtubule and Hoechst 33342 staining based fluorescence microscopic analysis.
The test system of data set [7] is MDA-MB-231. The experiment in a line: Induction of G2/M phase cell cycle arrest in human MDA-MB-231 cells at 200 to 500 nM incubated for 48 hrs by PI staining based flow cytometric analysis. To be noted: dose 200-500 nM. It counts as functional.
Data set [8] concerns MDA-MB-231. Nature of the data set: Inhibition of cell migration in human MDA-MB-231 cells at 50 nM incubated for 4 hrs by scratch assay. In kind it is functional, cell-based.
Data set [9] relates to MDA-MB-231. The experiment in a line: Inhibition of cell migration in human MDA-MB-231 cells at 50 nM incubated for 6 hrs by scratch assay. In kind it is functional, cell-based.
Data set [10] deals with MDA-MB-231. The experiment in a line: Inhibition of cell proliferation in human MDA-MB-231 cells at 50 nM incubated for 6 hrs by scratch assay. In kind it is functional, cell-based.
Data set [11] has as its system MDA-MB-231. Nature of the data set: Inhibition of cell migration in human MDA-MB-231 cells at 50 nM incubated for 72 hrs by scratch assay. In kind it is functional, cell-based.
Data set [12] relates to MDA-MB-231. Nature of the data set: Induction of morphological changes in human MDA-MB-231 cells at 100 nM measured within 2 hrs by scratch assay. It counts as functional, cell-based.
In data set [13] the test system is MDA-MB-231. Nature of the data set: Induction of morphological changes in human MDA-MB-231 cells assessed as cell rounding at 100 nM measured after 20 hrs by scratch assay relative to control. In kind it is functional.
Data set [14] has as its system MDA-MB-231. Nature of the data set: Inhibition of cell migration in human MDA-MB-231 cells at 100 nM incubated for 20 hrs by scratch assay. It counts as functional, cell-based.
The subject of data set [15] is MDA-MB-231. Nature of the data set: Inhibition of cell proliferation in human MDA-MB-231 cells at 100 nM incubated for 20 hrs by scratch assay. It counts as functional, cell-based.
Data set [16] deals with MDA-MB-231. Nature of the data set: Inhibition of cell migration in human MDA-MB-231 cells at 100 nM incubated for 30 hrs by scratch assay. In kind it is functional, cell-based.
For data set [17], the system named is MDA-MB-231. Nature of the data set: Induction of morphological changes in human MDA-MB-231 cells at 200 nM measured within 1 hrs by scratch assay. It counts as functional, cell-based.
Data set [18] has as its system MDA-MB-231. Nature of the data set: Induction of morphological changes in human MDA-MB-231 cells assessed as cell rounding at 200 nM measured after 14 hrs by scratch assay. In kind it is functional.
Data set [19] relates to MDA-MB-231. The experiment in a line: Inhibition of cell migration in human MDA-MB-231 cells at 200 nM by scratch assay. In kind it is functional, cell-based.
Data set [20] deals with MDA-MB-231. The experiment in a line: Inhibition of cell proliferation in human MDA-MB-231 cells at 200 nM by scratch assay. In kind it is functional, cell-based.
For data set [21], the target named is T1, Tubulin (Homo sapiens). Nature of the data set: Inhibition of [3H]Colchicine binding to tubulin (unknown origin) at 0.5 uM incubated for 10 mins by scintillation counter relative to control. In kind it is protein-complex assay.
A short description of data set [22]: Aqueous solubility of compound. It counts as physicochemical. As to conditions: water.
Data set [23] concerns Mus musculus. Nature of the data set: Vascular disrupting activity in BALB/c mouse implanted with mouse orthotopic RENCA-luc assessed as reduction in bioluminescence imaging signal at 100 mg/kg administered as single dose and measured at 2.5 hrs by imaging analysis. In kind it is functional, organism-based.
For data set [24], the system named is Mus musculus. Nature of the data set: Vascular disrupting activity in BALB/c mouse implanted with mouse orthotopic RENCA-luc assessed as reduction in bioluminescence imaging signal at 150 mg/kg administered as single dose and measured at 2.5 hrs by imaging analysis relative to control. In kind it is functional. Also noted: scale not given: the % may be the effect or the level left.

Data set [25] relates to Mus musculus. The experiment in a line: Vascular disrupting activity in BALB/c mouse implanted with mouse orthotopic RENCA-luc assessed as hemorrhage at 150 mg/kg administered as single dose and measured after 2.5 hrs by H&E staining based analysis. In kind it is functional, organism-based.
Data set [26] deals with Mus musculus. Nature of the data set: Vascular disrupting activity in BALB/c mouse implanted with mouse orthotopic RENCA-luc assessed as necrosis at 150 mg/kg administered as single dose and measured after 2.5 hrs by H&E staining based analysis. In kind it is functional, organism-based.

In general, IC50 refers to the concentration at which inhibition is half-maximal. What is called GI50 is the concentration that inhibits growth by half. In data set [1], `COc1cc(C(=O)c2c[nH]c3cc(-c4ccc(C(F)(F)F)cc4)ccc23)cc(OC)c1OC` had a 50% inhibitory concentration (IC50) of more than 20 µM. The 50% growth inhibitory concentration (GI50) in [2] was 1.4 µM; in [3], 4.06 µM.
Usually inhibition stands for the change of the read-out against control, counted positive when it falls. In turn, `COc1cc(C(=O)c2c[nH]c3cc(-c4cccc(O)c4)ccc23)cc(OC)c1OC` had an IC50 in data set [1] of 0.57 µM. Besides, the inhibition in [4] was found to be 87%. Also, the GI50 in data set [2] was 0.32 µM; in data set [3], 0.102 µM. For the same molecule, the outcome in data set [5], in data set [6], in data set [7], in data set [12] and in data set [17] was Active. Moreover, the inhibition entry in [8], in [14], in data set [15], in [16], in [19] and in data set [20] was “Active” in each case. In addition, the inhibition entry in [9], in data set [10] and in [11] was “inactive” each time. Also, the Activity is on record as less than 90% in data set [13] and more than 90% in data set [18].
On to `COc1cc(C(=O)c2c[nH]c3cc(-c4ccc(C(C)=O)s4)ccc23)cc(OC)c1OC`, for which, in [1], the IC50 was more than 20 µM. Further, the concentration for 50% growth inhibition (GI50) in [2] is 0.073 µM; in data set [3], 3.23 µM.
In data set [1], `COc1cc(C(=O)c2c[nH]c3cc(-c4ccc(C)cc4)ccc23)cc(OC)c1OC` gave a concentration for half-maximal inhibition (IC50) of 1.7 µM. This molecule came in with an inhibition in [4] of 17%. In addition, the results for the concentration for 50% growth inhibition (GI50) in data set [2] and in data set [3] were 0.56 µM and 2.01 µM, respectively.
In the case of `COc1cc(C(=O)c2c[nH]c3cc(-c4cccc(N)c4)ccc23)cc(OC)c1OC`, inhibition in data set [1] was half-maximal at 0.42 µM (IC50). Moreover, the results for the inhibition in data set [4] and in [21] were 91% and 51%, respectively. The GI50 is 0.065 µM in data set [2] and 0.025 µM in data set [3].
One may read the solubility as how much of the substance goes into solution per volume. As to `COc1cc(C(=O)c2c[nH]c3cc(-c4cccc(OP(=O)([O-])[O-])c4)ccc23)cc(OC)c1OC.[Na+].[Na+]`, the IC50 in [1] was 9 µM. Besides, the concentration for 50% growth inhibition (GI50) came out at 4.2 µM in data set [2] and 0.694 µM in data set [3]. This molecule also gave a solubility in data set [22] not above 2400 µg/mL. Also, the result in data set [23], in data set [25] and in data set [26] was Active. For the same molecule, in data set [24], the Activity is listed as more than 90%.
Turning to `COc1cc(C(=O)c2c[nH]c3cc(-c4cc5ccccc5o4)ccc23)cc(OC)c1OC`, the IC50 in [1] was more than 20 µM. Also, the GI50 is 0.95 µM in data set [2] and 2.07 µM in data set [3].
Regarding `COc1ccc(/C=C\c2cc(OC)c(OC)c(OC)c2)cc1O` [COMBRETASTATIN A4], the figures for the GI50 in [2] and in data set [3] were 0.009 µM and 0.0035 µM, respectively.
Regarding `COc1ccc(-c2ccc3c(C(=O)c4cc(OC)c(OC)c(OC)c4)c[nH]c3c2)cc1O`, in data set [1], the IC50 was more than 20 µM. Also, the GI50 was determined as 1.5 µM in data set [2] and 0.828 µM in data set [3].
Molecule `COc1cc(C(=O)c2c[nH]c3cc(-c4cccc([N+](=O)[O-])c4)ccc23)cc(OC)c1OC` gave an IC50 in data set [1] of 0.65 µM. The same molecule came in with an inhibition in data set [4] of 41%. The figures for the 50% growth inhibitory concentration (GI50) in data set [2] and in data set [3] were 0.028 µM and 0.11 µM, respectively.
Regarding `COc1cccc(-c2ccc3c(C(=O)c4cc(OC)c(OC)c(OC)c4)c[nH]c3c2)c1`, half-maximal inhibition in data set [1] (IC50) was put at 0.37 µM. In data set [4], this molecule displayed an inhibition of 87%. The GI50 in [2] turned out to be 0.023 µM; in data set [3] it was 0.036 µM.
For `CCc1ccc(-c2ccc3c(C(=O)c4cc(OC)c(OC)c(OC)c4)c[nH]c3c2)cc1`, the IC50 in data set [1] was more than 20 µM. Further, the GI50 is 1.8 µM in [2] and 2.22 µM in data set [3].
`CCc1ccc(-c2ccc3c(C(=O)c4cc(OC)c(O)c(OC)c4)c[nH]c3c2)cc1` gave a half-inhibitory concentration (IC50) in [1] of more than 20 µM. Besides, the GI50 in data set [2] and in [3] was more than 5 µM throughout.
Regarding `COc1cc(C(=O)c2c[nH]c3cc(-c4ccccc4)ccc23)cc(OC)c1OC`, 0.28 µM corresponded to half-maximal inhibition in data set [1] (IC50). Moreover, the inhibition in data set [4] amounted to 86%. The 50% growth inhibitory concentration (GI50) in data set [2] stood at 0.073 µM; in [3], 0.156 µM.
For `COc1ccc(-c2ccc3c(C(=O)c4cc(OC)c(OC)c(OC)c4)c[nH]c3c2)cc1`, the 50% inhibitory concentration (IC50) in [1] worked out at 2.5 µM. This molecule displayed an inhibition in [4] of 9.1%. In addition, the values for the concentration for 50% growth inhibition (GI50) in [2] and in data set [3] were 0.098 µM and 1.86 µM, respectively.
